Reference: patent US5552421A, “Leukotriene biosynthesis inhibitors” (Boehringer Ingelheim Pharmaceuticals, Inc., priority 1995, dated 1996)

Test system: LTB4 biosynthesis in human polymorphonuclear leukocytes (PMNs)
Test: Inhibition of LTB4 biosynthesis in human polymorphonuclear leukocytes (PMNs)
Assay type: cell-based
Settings: Homo sapiens, Leukocyte, Table 3, Phenyl; values with <: see footnote d, Table 1
Description: Inhibition of LTB4, biosynthesis in human polymorphonuclear leukocytes (PMNs)
The inhibition of leukotriene biosynthesis is measured by determining whether and to what extent test compounds can inhibit LTB4 production from endogenous arachidonic acid in human peripheral blood leukocytes.
To 48-well tissue culture plates was added a solution of the test compound followed by addition of human polymorphonuclear leukocytes isolated from peripheral blood at a density of 1.5×10^6 cells/well. Culture plates were preincubated for fifteen minutes with shaking at 28° C. Cells were stimulated with calcium ionophore A23187 at a final concentration of 2.5 μM for an additional ten minutes. The reaction was terminated by the addition of an EGTA solution (10 mM final concentration)followed by centrifugation at 1500 rpm at 10° C. Supernatants were stored at -70° C. LTB4 levels were determined by RIA using a commercially available kit. Nonlinear regression analysis was used to calculate. IC50 values.
The following tables show % inhibition of LTB4 biosynthesis by compounds of the invention at test concentrations indicated, with the determined IC50 shown in μM.

| IC50 | Compound |
| --- | --- |
| 220 nM | O=C(O)c1ccc2nc(NC(CC3CCCCC3)c3ccccc3)sc2c1 (centres unmarked) [Compound 66] |
| 150 nM | N#Cc1ccc2oc(NC(CC3CCCCC3)c3ccccc3)nc2c1 (centres unmarked) [Compound 67] |
| 170 nM | Fc1ccc(C(CC2CCCCC2)Nc2nc3ccccc3o2)cc1 (centres unmarked) [Compound 71] |

Same assay, conditions: Homo sapiens, Leukocyte, Table 4, Pyridyl; values with <: see footnote d, Table 1

| Compound | IC50 |
| --- | --- |
| c1cncc(C(CC2CCCCC2)Nc2nc3ccccc3o2)c1 (centres unmarked) [Compound 80] | 55 nM |
| Cc1ccc2oc(NC(CC3CCCCC3)c3cccnc3)nc2c1 (centres unmarked) [Compound 82] | 24 nM |
| Cc1ccc2oc(NC(CC3CCCCC3)c3ccncc3)nc2c1 (centres unmarked) [Compound 83] | 190 nM |
| O=[N+]([O-])c1ccc2nc(NC(CC3CCCCC3)c3cccnc3)oc2c1 (centres unmarked) [Compound 84] | 35 nM |
| O=[N+]([O-])c1ccc2oc(NC(CC3CCCCC3)c3cccnc3)nc2c1 (centres unmarked) [Compound 85] | 24 nM |
| Clc1ccc2sc(NC(CC3CCCCC3)c3ccccn3)nc2c1 (centres unmarked) [Compound 97] | 4 nM |
| Fc1ccc(CC(Nc2nc3ccc(C(F)(F)F)cc3s2)c2ccccn2)cc1 (centres unmarked) [Compound 106] | < 1000 nM |

The next lines start with the values.

| IC50 | Compound |
| --- | --- |
| 23 nM | Clc1ccc2oc(NC(CC3CCCCC3)c3cccnc3)nc2c1 (centres unmarked) [Compound 86] |
| 2 nM | Clc1ccc2oc(NC(CC3CCCCC3)c3ccccn3)nc2c1 (centres unmarked) [Compound 91] |
| 12 nM | COC(=O)c1ccc2oc(NC(CC3CCCCC3)c3ccccn3)nc2c1 (centres unmarked) [Compound 92] |
| 19 nM | Fc1ccc(CC(Nc2nc3cc(Cl)ccc3o2)c2ccccn2)cc1 (centres unmarked) [Compound 93] |
| 12 nM | CC(C)c1ccc2oc(NC(Cc3ccc(F)cc3)c3ccccn3)nc2c1 (centres unmarked) [Compound 94] |
| 1.2 nM | FC(F)(F)c1ccc2oc(NC(CC3CCCCC3)c3ccccn3)nc2c1 (centres unmarked) [Compound 95] |
| 27 nM | Fc1ccc(CC(Nc2nc3cc(Cl)ccc3s2)c2ccccn2)cc1 (centres unmarked) [Compound 96] |
| 29 nM | CC(C)c1ccc2oc(NC(Cc3ccc(Cl)cc3)c3ccccn3)nc2c1 (centres unmarked) [Compound 98] |
| 14 nM | Clc1ccc(CC(Nc2nc3cc(Cl)ccc3o2)c2ccccn2)cc1 (centres unmarked) [Compound 99] |
| 5 nM | CC(C)c1ccc2oc(NC(Cc3cccc(Cl)c3)c3ccccn3)nc2c1 (centres unmarked) [Compound 100] |
| 27 nM | COC(=O)c1ccc2oc(NC(Cc3ccc(F)cc3)c3ccccn3)nc2c1 (centres unmarked) [Compound 101] |
| 50 nM | CN(C)S(=O)(=O)c1ccc2oc(NC(Cc3ccc(F)cc3)c3ccccn3)nc2c1 (centres unmarked) [Compound 103] |
| < 30 nM | O=[N+]([O-])c1ccc(CC(Nc2nc3cc(Cl)ccc3o2)c2ccccn2)cc1 (centres unmarked) [Compound 104] |
| < 30 nM | Fc1ccc2oc(NC(Cc3cccc(Cl)c3)c3ccccn3)nc2c1 (centres unmarked) [Compound 105] |
| 8 nM | Fc1ccc(CC(Nc2nc3cc(C(F)(F)F)ccc3o2)c2ccccn2)cc1 (centres unmarked) [Compound 107] |
| 2 nM | Fc1ccc2oc(NC(CC3CCCCC3)c3ccccn3)nc2c1 (centres unmarked) [Compound 109] |
| 21 nM | Fc1ccc(CC(Nc2nc3cc(F)ccc3o2)c2ccccn2)cc1 (centres unmarked) [Compound 110] |
| 4 nM | Fc1ccc2oc(NC(CC3CCCCC3)c3ccccn3)nc2c1F (centres unmarked) [Compound 111] |
| 1 nM | Fc1cc2nc(NC(CC3CCCCC3)c3ccccn3)oc2cc1F (centres unmarked) [Compound 112] |
| 24 nM | Fc1ccc(CC(Nc2nc3cc(F)c(F)cc3o2)c2ccccn2)cc1 (centres unmarked) [Compound 113] |
| 11 nM | COc1ccc2oc(NC(Cc3ccc(F)cc3)c3ccccn3)nc2c1 (centres unmarked) [Compound 114] |
| < 30 nM | O=[N+]([O-])c1ccc2oc(NC(Cc3ccc(F)cc3)c3ccccn3)nc2c1 (centres unmarked) [Compound 115] |
| < 100 nM | Cc1nc(CC(Nc2nc3cc(C(C)C)ccc3o2)c2ccccn2)cs1 (centres unmarked) [Compound 116] |
| < 100 nM | Cc1nc(CC(Nc2nc3cc(Cl)ccc3o2)c2ccccn2)cs1 (centres unmarked) [Compound 117] |

Same assay, conditions: Homo sapiens, Leukocyte, Table 5, Thiophene

| IC50 | Compound |
| --- | --- |
| 6.2 nM | c1csc(C(CC2CCCCC2)Nc2nc3ccccc3o2)c1 (centres unmarked) [Compound 120] |

Same assay, conditions: Homo sapiens, Leukocyte, Table 6, Methyloxadiazole; values with <: see footnote d, Table 1

| Compound | IC50 |
| --- | --- |
| Cc1noc(C(Cc2ccccc2)Nc2nc3ccccc3s2)n1 (centres unmarked) [Compound 121] | 1300 nM |
| Cc1noc([C@H](Cc2ccccc2)Nc2nc3ccccc3s2)n1 [Compound 122] | 1800 nM |
| CCc1ccc2sc(N[C@@H](Cc3ccccc3)c3nc(C)no3)nc2c1 [Compound 123] | < 1000 nM |
| Cc1noc([C@H](CC2CCCCC2)Nc2nc3ccccc3s2)n1 [Compound 124] | 120 nM |
| Cc1ccc2oc(N[C@@H](CC3CCCCC3)c3nc(C)no3)nc2c1 [Compound 125, L-2-[2-Cyclohexyl-1-(3-methyl-1,2,4-oxadiazol-5-yl)ethyl]amino-5-methylbenzoxazole] | 28 nM |

Second part, the compound after the results:

| IC50 | Compound |
| --- | --- |
| < 300 nM | Cc1noc(C(Cc2ccc(F)cc2)Nc2nc3cc(C(C)C)ccc3o2)n1 (centres unmarked) [Compound 126] |
| < 1000 nM | Cc1noc(C(Cc2csc(C)n2)Nc2nc3cc(C(C)C)ccc3o2)n1 (centres unmarked) [Compound 127] |

Same assay, conditions: Homo sapiens, Leukocyte, Table 7, Ketones

| IC50 | Compound |
| --- | --- |
| 350 nM | CC(=O)[C@H](Cc1ccccc1)Nc1nc2ccc(C(C)C)cc2s1 [Compound 128, 3-[(6-Isopropylbenzothiazol-2-yl)amino]-4-phenylbutan-2-one] |
| < 1000 nM | CC(=O)[C@H](Cc1ccccc1)Nc1nc2ccccc2o1 [Compound 129] |
| < 300 nM | O=C(c1ccccc1)[C@H](Cc1ccccc1)Nc1nc2ccccc2o1 [Compound 130] |
| < 1000 nM | Cc1ccc2oc(N[C@@H](CC3CCCCC3)C(=O)c3ccccc3)nc2c1 [Compound 131] |
| 23 nM | Cc1ccc2oc(N[C@@H](CC3CCCCC3)C(=O)c3nccn3C)nc2c1 [Compound 132] |

Same assay, conditions: Homo sapiens, Leukocyte, Table 8, Miscellaneous Acyclic; values with <: see footnote d, Table 1

| Compound | IC50 |
| --- | --- |
| CCOC[C@H](Cc1ccccc1)Nc1nc2cc(C(C)C)ccc2o1 [Compound 133] | 16 nM |
| CCCOC[C@H](Cc1ccccc1)Nc1nc2cc(C(C)C)ccc2o1 [Compound 134] | 220 nM |
| COCC(Cc1ccc(F)cc1)Nc1nc2cc(C(C)C)ccc2o1 (centres unmarked) [Compound 136] | < 30 nM |
| CCOCC(Cc1ccc(F)cc1)Nc1nc2cc(C(C)C)ccc2o1 (centres unmarked) [Compound 137] | < 30 nM |
| CCCOCC(Cc1ccc(F)cc1)Nc1nc2cc(C(C)C)ccc2o1 (centres unmarked) [Compound 138] | < 300 nM |
| COCC(Cc1ccc(OC)cc1)Nc1nc2cc(C(C)C)ccc2o1 (centres unmarked) [Compound 139] | < 30 nM |
| COCC(Cc1cccnc1)Nc1nc2cc(C(C)C)ccc2o1 (centres unmarked) [Compound 140] | < 1000 nM |
| CSC[C@H](Cc1cccc(Cl)c1)Nc1nc2cc(C(C)C)ccc2o1 [Compound 142] | < 30 nM |
| CSCC(Cc1cccnc1)Nc1nc2cc(C(C)C)ccc2o1 (centres unmarked) [Compound 143] | < 1000 nM |
| CC(C)c1ccc2oc(NC(Cc3ccccc3)CS(C)(=O)=O)nc2c1 (centres unmarked) [Compound 146] | < 30 nM |
| CC(C)c1ccc2oc(NC(Cc3cccnc3)CS(C)(=O)=O)nc2c1 (centres unmarked) [Compound 147] | < 1000 nM |
| CC(C)c1ccc2oc(N[C@@H](Cc3ccccc3)CN(C)C)nc2c1 [Compound 150] | < 300 nM |
| CC(=O)NC[C@H](Cc1ccccc1)Nc1nc2cc(C(C)C)ccc2o1 [Compound 151] | < 100 nM |

Results, then the compound that gave them:

| IC50 | Compound |
| --- | --- |
| 29 nM | CCOC[C@H](Cc1ccccc1)Nc1nc2cc(Cl)ccc2o1 [Compound 135] |
| < 300 nM | COCC(Cc1csc(C)n1)Nc1nc2cc(C(C)C)ccc2o1 (centres unmarked) [Compound 141] |
| < 100 nM | CSCC(Cc1csc(C)n1)Nc1nc2cc(C(C)C)ccc2o1 (centres unmarked) [Compound 145] |

Same assay, conditions: Table 4, Pyridyl; values with <: see footnote d, Table 1

| IC50 | Compound |
| --- | --- |
| 4 nM | Clc1ccc2sc(NC(CC3CCCCC3)c3ccccn3)nc2c1 (centres unmarked) [Compound 102] |
| 1 nM | FC(F)(F)c1ccc2oc(NC(CC3CCCCC3)c3ccccn3)nc2c1 (centres unmarked) [Compound 108] |
